Where two headings read alike, the source gives them in different places.
How the values were obtained:
Experiment in all cases: biochemical
Design in all cases: DiscoveRx KINOMEscan active site-directed competition binding; percent of control kinase bound to immobilised ligand
[1] = target: T1, JNK3 (Homo sapiens, UniProt P53779)
T1 construct: gene MAPK10

[2] = target: T2, MEK3 (Homo sapiens, UniProt P46734)
T2 construct: gene MAP2K3
T2 sequence (P46734 1-347): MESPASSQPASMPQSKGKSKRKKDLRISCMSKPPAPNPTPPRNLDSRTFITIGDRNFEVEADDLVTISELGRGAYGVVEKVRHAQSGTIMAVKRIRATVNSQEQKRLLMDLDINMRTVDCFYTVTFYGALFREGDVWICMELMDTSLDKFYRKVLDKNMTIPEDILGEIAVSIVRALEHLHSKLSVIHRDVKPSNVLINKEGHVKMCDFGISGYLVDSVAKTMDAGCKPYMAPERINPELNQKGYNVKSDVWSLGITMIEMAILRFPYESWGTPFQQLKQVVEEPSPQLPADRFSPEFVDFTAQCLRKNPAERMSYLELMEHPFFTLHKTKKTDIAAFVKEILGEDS

[3] = target: NEK4 (Homo sapiens, UniProt P51957)
[4] = target: T3, PKMYT1 (Homo sapiens, UniProt Q99640)
T3 sequence (Q99640 1-499): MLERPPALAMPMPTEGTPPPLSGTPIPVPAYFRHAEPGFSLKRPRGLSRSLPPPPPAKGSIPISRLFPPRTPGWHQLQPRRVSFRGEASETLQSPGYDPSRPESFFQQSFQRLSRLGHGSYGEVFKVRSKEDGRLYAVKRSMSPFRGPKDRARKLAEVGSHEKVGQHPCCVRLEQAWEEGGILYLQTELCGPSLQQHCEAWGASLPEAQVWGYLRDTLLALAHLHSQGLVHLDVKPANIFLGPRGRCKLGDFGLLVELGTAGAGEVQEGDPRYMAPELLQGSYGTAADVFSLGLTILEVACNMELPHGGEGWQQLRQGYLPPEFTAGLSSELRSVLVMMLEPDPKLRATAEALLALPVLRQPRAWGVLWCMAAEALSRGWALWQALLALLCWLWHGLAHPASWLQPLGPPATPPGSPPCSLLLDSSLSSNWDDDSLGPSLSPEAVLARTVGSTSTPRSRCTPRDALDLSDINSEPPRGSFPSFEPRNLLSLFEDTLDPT

[5] = target: CLK1 (Homo sapiens, UniProt P49759)
[6] = target: T4, PAK7 (Homo sapiens, UniProt Q9P286)
T4 construct: gene PAK5

[7] = target: T5, ADCK4 (Homo sapiens, UniProt Q96D53)
T5 construct: gene COQ8B
T5 sequence (Q96D53 1-544): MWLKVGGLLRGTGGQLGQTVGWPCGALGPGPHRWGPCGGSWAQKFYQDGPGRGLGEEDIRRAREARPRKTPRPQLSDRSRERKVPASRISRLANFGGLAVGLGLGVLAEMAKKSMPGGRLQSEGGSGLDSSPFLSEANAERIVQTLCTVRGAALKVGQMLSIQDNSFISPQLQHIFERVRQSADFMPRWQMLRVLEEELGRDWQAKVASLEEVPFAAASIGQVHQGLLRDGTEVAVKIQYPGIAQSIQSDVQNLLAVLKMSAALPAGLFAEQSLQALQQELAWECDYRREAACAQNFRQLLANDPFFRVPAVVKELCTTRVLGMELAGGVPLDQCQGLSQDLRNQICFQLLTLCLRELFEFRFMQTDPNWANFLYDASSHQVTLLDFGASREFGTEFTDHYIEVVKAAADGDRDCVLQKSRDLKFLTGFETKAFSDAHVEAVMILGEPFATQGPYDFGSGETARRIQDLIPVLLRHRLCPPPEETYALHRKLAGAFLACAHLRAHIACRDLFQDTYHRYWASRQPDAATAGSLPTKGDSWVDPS

[8] = target: T6, ABL1(Q252H)-phosphorylated (Homo sapiens, UniProt P00519, Q252H)
T6 construct: phosphorylated

[9] = target: T7, ULK3 (Homo sapiens, UniProt Q6PHR2)
T7 sequence (Q6PHR2 1-472): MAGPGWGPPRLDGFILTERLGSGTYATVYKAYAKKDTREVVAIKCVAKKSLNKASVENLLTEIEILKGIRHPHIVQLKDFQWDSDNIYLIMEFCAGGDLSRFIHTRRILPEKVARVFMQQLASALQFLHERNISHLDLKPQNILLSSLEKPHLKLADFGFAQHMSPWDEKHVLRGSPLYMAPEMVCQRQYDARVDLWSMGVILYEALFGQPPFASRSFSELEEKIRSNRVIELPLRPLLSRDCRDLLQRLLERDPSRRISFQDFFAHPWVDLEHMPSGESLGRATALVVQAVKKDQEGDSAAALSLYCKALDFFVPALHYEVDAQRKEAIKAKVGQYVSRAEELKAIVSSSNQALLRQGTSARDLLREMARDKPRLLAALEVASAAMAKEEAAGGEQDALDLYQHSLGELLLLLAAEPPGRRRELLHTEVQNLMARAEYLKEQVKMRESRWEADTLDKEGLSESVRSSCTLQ

[10] = target: TNIK (Homo sapiens, UniProt Q9UKE5)
[11] = target: T8, HPK1 (Homo sapiens, UniProt Q92918)
T8 construct: gene MAP4K1

[12] = read-out: Talazoparib (BMN 673) / %Ctrl @ 10000nM
[13] = read-out: Olaparib / %Ctrl @ 10000nM
[14] = read-out: Niraparib (MK-4827) / %Ctrl @ 10000nM
[15] = read-out: Rucaparib / %Ctrl @ 10000nM, binding competition, % of control

Sequence of TNIK (Q9UKE5 whole entry): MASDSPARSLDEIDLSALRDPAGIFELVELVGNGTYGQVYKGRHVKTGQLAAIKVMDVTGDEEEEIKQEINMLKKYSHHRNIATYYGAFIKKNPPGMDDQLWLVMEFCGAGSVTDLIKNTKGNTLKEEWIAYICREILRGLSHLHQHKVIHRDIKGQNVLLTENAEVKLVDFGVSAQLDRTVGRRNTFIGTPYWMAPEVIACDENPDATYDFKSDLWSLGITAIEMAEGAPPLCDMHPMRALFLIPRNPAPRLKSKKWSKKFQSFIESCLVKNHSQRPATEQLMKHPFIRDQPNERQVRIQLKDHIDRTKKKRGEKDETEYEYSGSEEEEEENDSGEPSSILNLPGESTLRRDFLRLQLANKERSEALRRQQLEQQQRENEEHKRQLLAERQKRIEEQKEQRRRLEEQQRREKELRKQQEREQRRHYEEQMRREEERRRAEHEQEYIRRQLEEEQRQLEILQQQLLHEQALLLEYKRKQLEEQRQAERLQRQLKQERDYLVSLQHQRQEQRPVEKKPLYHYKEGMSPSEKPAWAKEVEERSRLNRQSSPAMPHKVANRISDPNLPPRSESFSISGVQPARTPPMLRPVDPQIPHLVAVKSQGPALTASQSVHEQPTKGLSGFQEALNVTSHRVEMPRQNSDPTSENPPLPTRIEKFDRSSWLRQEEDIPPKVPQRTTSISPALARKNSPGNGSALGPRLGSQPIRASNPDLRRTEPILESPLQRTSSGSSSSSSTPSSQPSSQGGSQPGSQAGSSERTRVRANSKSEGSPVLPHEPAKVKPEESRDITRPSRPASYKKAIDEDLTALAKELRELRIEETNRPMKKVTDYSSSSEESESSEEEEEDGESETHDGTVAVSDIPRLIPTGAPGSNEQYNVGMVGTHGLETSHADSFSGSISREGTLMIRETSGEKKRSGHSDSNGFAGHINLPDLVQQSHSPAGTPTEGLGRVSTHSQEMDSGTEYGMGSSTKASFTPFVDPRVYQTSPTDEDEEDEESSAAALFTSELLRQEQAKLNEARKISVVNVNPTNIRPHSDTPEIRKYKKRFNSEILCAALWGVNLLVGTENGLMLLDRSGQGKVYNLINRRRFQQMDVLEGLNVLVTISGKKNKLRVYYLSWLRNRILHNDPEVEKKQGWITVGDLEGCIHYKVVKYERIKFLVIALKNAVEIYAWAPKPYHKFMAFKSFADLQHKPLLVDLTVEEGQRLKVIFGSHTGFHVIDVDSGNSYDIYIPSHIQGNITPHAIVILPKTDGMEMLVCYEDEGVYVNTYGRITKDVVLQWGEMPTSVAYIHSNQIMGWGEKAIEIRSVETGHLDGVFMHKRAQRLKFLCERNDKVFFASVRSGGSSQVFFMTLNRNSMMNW
Sequence of CLK1 (P49759 whole entry): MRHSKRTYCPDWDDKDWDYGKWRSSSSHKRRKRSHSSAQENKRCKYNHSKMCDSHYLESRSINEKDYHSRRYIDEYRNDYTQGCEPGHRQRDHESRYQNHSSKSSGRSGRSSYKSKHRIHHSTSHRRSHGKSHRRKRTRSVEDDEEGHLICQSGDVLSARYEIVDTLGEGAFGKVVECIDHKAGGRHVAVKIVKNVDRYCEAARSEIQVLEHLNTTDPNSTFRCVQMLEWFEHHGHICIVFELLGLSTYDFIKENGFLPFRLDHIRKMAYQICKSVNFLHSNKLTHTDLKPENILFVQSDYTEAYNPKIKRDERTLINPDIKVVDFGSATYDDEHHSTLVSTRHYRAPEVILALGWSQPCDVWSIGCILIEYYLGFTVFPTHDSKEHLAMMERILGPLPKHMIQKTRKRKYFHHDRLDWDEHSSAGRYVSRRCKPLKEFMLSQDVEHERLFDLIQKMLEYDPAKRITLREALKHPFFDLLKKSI
T4 sequence (Q9P286 whole entry): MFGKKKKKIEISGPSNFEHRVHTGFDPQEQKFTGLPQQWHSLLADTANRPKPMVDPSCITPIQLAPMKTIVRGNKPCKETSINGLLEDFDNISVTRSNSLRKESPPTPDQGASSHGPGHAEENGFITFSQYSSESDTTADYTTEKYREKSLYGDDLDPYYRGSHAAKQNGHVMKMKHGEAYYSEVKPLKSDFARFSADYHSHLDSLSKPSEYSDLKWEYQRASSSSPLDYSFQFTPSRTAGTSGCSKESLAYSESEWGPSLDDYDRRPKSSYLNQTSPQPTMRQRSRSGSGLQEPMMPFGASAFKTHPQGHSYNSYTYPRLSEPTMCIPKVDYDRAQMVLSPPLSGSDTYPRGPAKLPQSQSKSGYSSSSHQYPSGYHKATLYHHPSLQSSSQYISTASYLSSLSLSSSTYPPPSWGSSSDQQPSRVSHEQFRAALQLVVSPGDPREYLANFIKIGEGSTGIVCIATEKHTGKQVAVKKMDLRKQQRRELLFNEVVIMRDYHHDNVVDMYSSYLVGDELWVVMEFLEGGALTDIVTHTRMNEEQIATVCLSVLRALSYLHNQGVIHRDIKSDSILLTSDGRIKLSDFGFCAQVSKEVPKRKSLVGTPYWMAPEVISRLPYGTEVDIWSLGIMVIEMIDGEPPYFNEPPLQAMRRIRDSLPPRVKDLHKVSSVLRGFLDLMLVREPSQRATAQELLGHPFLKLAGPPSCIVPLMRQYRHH
T1 sequence (P53779 whole entry): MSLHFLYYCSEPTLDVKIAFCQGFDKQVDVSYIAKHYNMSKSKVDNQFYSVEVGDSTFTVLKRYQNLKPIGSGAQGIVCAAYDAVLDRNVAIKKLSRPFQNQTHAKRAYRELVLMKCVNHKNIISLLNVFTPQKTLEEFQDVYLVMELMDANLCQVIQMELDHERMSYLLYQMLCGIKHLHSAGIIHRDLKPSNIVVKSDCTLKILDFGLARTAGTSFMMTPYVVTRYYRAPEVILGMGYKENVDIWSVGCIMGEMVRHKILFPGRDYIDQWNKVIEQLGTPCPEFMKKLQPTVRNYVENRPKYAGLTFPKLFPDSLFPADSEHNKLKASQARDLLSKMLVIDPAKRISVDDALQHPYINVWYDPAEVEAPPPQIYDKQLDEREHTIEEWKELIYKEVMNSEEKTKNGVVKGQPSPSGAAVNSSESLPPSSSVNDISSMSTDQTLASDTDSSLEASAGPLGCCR
T8 sequence (Q92918 whole entry): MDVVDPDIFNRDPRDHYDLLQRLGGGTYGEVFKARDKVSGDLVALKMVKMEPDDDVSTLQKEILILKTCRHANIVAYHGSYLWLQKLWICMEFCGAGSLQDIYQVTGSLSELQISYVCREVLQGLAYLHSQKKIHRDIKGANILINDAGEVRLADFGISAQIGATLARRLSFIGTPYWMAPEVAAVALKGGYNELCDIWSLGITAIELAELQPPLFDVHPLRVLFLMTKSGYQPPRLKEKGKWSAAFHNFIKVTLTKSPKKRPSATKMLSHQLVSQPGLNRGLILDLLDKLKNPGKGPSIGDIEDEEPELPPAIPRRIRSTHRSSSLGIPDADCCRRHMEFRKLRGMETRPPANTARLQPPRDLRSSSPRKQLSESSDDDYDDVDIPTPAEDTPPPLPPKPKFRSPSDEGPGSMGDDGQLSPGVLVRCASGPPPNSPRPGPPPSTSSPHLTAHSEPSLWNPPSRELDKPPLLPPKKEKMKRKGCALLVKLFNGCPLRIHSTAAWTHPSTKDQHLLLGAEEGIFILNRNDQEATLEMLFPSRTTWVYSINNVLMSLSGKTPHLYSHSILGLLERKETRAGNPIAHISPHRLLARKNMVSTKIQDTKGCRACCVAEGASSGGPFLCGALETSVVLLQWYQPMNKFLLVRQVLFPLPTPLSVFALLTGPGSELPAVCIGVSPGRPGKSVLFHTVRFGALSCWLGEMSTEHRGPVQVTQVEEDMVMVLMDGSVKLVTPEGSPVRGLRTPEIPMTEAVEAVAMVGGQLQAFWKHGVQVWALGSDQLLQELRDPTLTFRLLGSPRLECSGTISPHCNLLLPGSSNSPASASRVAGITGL
Sequence of NEK4 (P51957 whole entry): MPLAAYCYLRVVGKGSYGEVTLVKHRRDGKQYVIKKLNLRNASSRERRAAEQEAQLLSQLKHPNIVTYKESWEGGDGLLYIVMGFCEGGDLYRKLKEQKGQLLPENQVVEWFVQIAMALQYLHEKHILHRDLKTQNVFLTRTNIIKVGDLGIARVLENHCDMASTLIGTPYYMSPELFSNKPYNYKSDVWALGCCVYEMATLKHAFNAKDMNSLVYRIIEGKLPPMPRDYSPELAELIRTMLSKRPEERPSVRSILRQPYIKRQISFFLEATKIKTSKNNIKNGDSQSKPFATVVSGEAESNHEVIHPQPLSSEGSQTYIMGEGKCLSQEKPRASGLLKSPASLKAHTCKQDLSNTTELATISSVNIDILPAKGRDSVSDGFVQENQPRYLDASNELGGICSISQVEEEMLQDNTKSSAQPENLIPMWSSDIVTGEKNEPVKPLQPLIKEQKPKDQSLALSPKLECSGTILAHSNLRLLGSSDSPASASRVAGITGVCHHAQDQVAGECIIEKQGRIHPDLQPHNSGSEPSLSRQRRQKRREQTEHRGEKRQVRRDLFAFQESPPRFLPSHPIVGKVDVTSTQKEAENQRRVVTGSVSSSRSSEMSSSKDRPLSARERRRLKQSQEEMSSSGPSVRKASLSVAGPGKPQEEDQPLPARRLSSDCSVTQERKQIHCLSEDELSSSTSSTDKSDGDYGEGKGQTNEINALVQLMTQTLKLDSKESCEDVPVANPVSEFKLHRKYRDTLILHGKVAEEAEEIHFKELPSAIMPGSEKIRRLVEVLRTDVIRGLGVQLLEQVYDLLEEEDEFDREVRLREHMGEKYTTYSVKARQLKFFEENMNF

`Cn1ncnc1[C@H]1c2n[nH]c(=O)c3cc(F)cc(c23)N[C@@H]1c1ccc(F)cc1` [Talazoparib] showed a percent of control binding at 10 µM [1, 12] of 91%, a percent of control binding at 10 µM [2, 12] of 65% and a percent of control binding at 10 µM [3, 12] of 100%. It also gave a percent of control binding at 10 µM [4, 12] of 100%, a percent of control binding at 10 µM [5, 12] of 86% and a percent of control binding at 10 µM [6, 12] of 100%. It also gave a percent of control binding at 10 µM [7, 12] of 100%, a percent of control binding at 10 µM [8, 12] of 100% and a percent of control binding at 10 µM [9, 12] of 84%. For the same compound, the percent of control binding at 10 µM [10, 12] was 98% and the percent of control binding at 10 µM [11, 12] was 85%.

`O=C(c1cc(Cc2n[nH]c(=O)c3ccccc23)ccc1F)N1CCN(C(=O)C2CC2)CC1` [Olaparib] gave a percent of control binding at 10 µM [1, 13] of 86%, a percent of control binding at 10 µM [2, 13] of 85% and a percent of control binding at 10 µM [3, 13] of 80%. For the same compound, the percent of control binding at 10 µM [4, 13] was 100%, the percent of control binding at 10 µM [5, 13] was 99% and the percent of control binding at 10 µM [6, 13] was 100%. It also gave a percent of control binding at 10 µM [7, 13] of 97%, a percent of control binding at 10 µM [8, 13] of 71% and a percent of control binding at 10 µM [9, 13] of 80%. It also gave a percent of control binding at 10 µM [10, 13] of 100% and a percent of control binding at 10 µM [11, 13] of 94%.

Work on `NC(=O)c1cccc2cn(-c3ccc([C@@H]4CCCNC4)cc3)nc12` [Niraparib] yielded a percent of control binding at 10 µM [1, 14] of 88%, a percent of control binding at 10 µM [2, 14] of 80% and a percent of control binding at 10 µM [3, 14] of 82%. It also gave a percent of control binding at 10 µM [4, 14] of 93%, a percent of control binding at 10 µM [5, 14] of 48% and a percent of control binding at 10 µM [6, 14] of 86%. The percent of control binding at 10 µM [7, 14] was 100%, the percent of control binding at 10 µM [8, 14] was 51% and the percent of control binding at 10 µM [9, 14] was 100%. The percent of control binding at 10 µM [10, 14] was 86% and the percent of control binding at 10 µM [11, 14] was 100%.

`CNCc1ccc(-c2[nH]c3cc(F)cc4c3c2CCNC4=O)cc1` [Rucaparib] was tested, and the percent of control binding at 10 µM [1, 15] was 71%, the percent of control binding at 10 µM [2, 15] was 83% and the percent of control binding at 10 µM [3, 15] was 82%. The percent of control binding at 10 µM [4, 15] was 100%, the percent of control binding at 10 µM [5, 15] was 37% and the percent of control binding at 10 µM [6, 15] was 86%. For the same compound, the percent of control binding at 10 µM [7, 15] was 82%, the percent of control binding at 10 µM [8, 15] was 72% and the percent of control binding at 10 µM [9, 15] was 70%. It also gave a percent of control binding at 10 µM [10, 15] of 22% and a percent of control binding at 10 µM [11, 15] of 96%.
